Experimental data reported in patent publication US20240374738A1, “BIFUNCTIONAL COMPOUND CAPABLE OF DEGRADING RECEPTOR TYROSINE KINASE AND APPLICATION THEREOF” (TAIBIDI PHARMACEUTICAL TECHNOLOGY (SHIJIAZHUANG) CO., LTD., priority 2023, published 2024).
pIC50: −log10 of the molar value.

Experiments:
Format in all cases: cell-based
[1] = test system: MKN45; experiment: Growth inhibition of gastric cancer cells MKN45 (CCK-8); conditions: Homo sapiens, MKN-45, half inhibitory concentration, 72 hours
Procedure: (§1) Inoculate gastric cancer cells (SNU5 or MKN45) into a 96 well plate at a concentration of […], with 100 μl added to each well. Incubate for 30 minutes. Observe the cell status under a microscope. Prepare compounds, weigh a certain amount of the series compounds or reference drug cabozantinib of this patent, first prepare a high concentration mother liquor with pure DMSO, and use gradient dilution method to prepare a concentration of 200 μM, 60 μM, 20 μM, 6 μM, 2 μM, 600 nM, 200 nM, 0 nM drug solution, shake to make it fully mixed. The control group was prepared with cabozantinib using the same solvent and method.
(§2) After preparation, add 1 μl of drug solution to each well of the 96 well plate, and then add 100 μl of culture medium. Repeat each dose three times. Gently shake to allow the cells and medication to come into full contact and incubate in the incubator for 72 hours. 72 hours later, remove and color with CCK-8 reagent kit. Add 20 μl of CCK-8 reagent to each well, gently shake well, and incubate in the incubator for 1 hour. After 1 hour, remove and measure the absorbance of each well using an enzyme-linked immunosorbent assay (ELISA) reader at a wavelength of 450 nm.
(§3) According to the formula: Cell growth inhibition rate=[1−(absorbance of experimental group absorbance of culture medium control group)/(absorbance of blank control group−absorbance of culture medium control group)]×100%. It can be concluded that the compound has the ability to inhibit the growth of gastric cancer cells at the current dose and time.
(§4) Draw a graph based on the gradient of concentration and use GraphPad Prism 9 software (GraphPad Software, La Jolla, CA) to calculate the maximum inhibitory concentration (IC50) at 50%.
(§5) Referring to steps 1 and 2 of this embodiment, the inhibitory effect of the compound of the present invention on the growth of cancer cells and the degradation effect of target proteins were measured, and the following results were obtained (see Table 2 below).
(§6) The growth inhibitory effects of the compound of the present invention on tumor cell lines MKN45 and SNU5 were measured. The activity is expressed as half inhibitory concentration (C50). The results are shown in Table 2 below; When the half inhibitory concentration is less than or equal to 100 nM, the compound activity is labeled as “++++”; When the half inhibitory concentration is greater than 100 nM and less than 500 nM, the compound activity is labeled as […] and less than 1000 nM, the compound activity is labeled as “++”; When the half inhibitory concentration is greater than 1000 nM and less than 3000 nM, the compound activity is marked as “+”; When the half inhibitory concentration is greater than 3000 nM, the compound activity is marked as […]

[2] = test system: SNU5; experiment: Growth inhibition of gastric cancer cells SNU5 (CCK-8); conditions: Homo sapiens, SNU-5, half inhibitory concentration, 72 hours
Procedure: as §1, §2, §3, §4, §5, §6

[3] = target: DDR1 (Homo sapiens, UniProt Q08345); experiment: Degradation of DDR1 in tumor cell MKN45 (Western blot); set-up: The degradation activity of the compounds against DDR1 in the MKN45 cell line; endogenous in cells; host or cells: MKN45; conditions: MKN-45, maximum degradation percentage, MKN45 cells, 24 hours
Procedure: Western blot experiment: Take gastric cancer cells (MKN45) and inoculate them into a 6-well plate at a concentration of […], adding 2 ml to each well and incubating for 24 hours.
The next day, observe the cells under a microscope to confirm their status. Prepare compounds, weigh a certain amount of the series compounds or reference drug cabozantinib from this patent, first prepare a high concentration mother liquor with pure DMSO, and use gradient dilution method to prepare compound concentrations of 2 mM, 200 μM, 100 μM, 20 μM, 2 μM, 200 nM, and 0 nM. The final concentration of DMSO is 0.5%. Shake to thoroughly mix. Add 10 μl of solution to each well. After incubation for 24 hours, remove the cells and use a pipette to aspirate the suspended cells into a 1.5 ml centrifuge tube. Centrifuge at 5000 rpm for 10 minutes to precipitate the cells. Carefully remove the cell precipitate from the culture medium, add 1 ml of PBS and shake slightly. After repeated cleaning for 3 times, dry the residue. Add 150 μl of RIPA lysate pre mixed with 1% PMSF, blow to allow the lysate to fully contact the cells, and incubate on ice for 10 minutes. Centrifuge at 12000 rpm for 10 minutes, extract the supernatant, use the BCA protein quantification kit to determine and homogenize the sample loading.
Mix BCA-A in a 50:1 ratio Prepare working solution with B solution, dilute the sample by 5 times, then pipette 20 μl onto a 96 well ELISA plate. Add 200 μl of pre mixed BCA working solution and incubate at 37° C. for 20 minutes. Measure the A562 nm absorbance value using an ELISA reader and substitute it into the protein standard curve formula to obtain the sample concentration. After calculating the required volume for loading […] of sample, divide the sample into 1.5 ml centrifuge tubes. Add 10 μl of sample buffer to each tube and mix well. Heat in a 95° C. metal bath for 5 minutes to denature the protein.
Take 4-20% gradient pre adhesive and fix it on the adhesive rack. Add electrophoresis solution to the slot and remove the comb, Marker and protein samples were loaded, and after 30 minutes of electrophoresis at 80V, the voltage was adjusted to 120V for electrophoresis, The marker band stops electrophoresis at the forefront of the gel. Take out the adhesive block and cut it to the appropriate size, The PVDF membrane was cut and activated in methanol, and after activation, the PVDF membrane was equilibrated in a membrane transfer equilibrium solution for 1 minute. Using sponge pads The sequence of PVDF film, adhesive, and sponge pad is placed in the splint and placed in the eBlot equipment for rapid wet rotation. Remove the membrane and seal it in 5% skim milk powder dissolved in 1×TBST for 1 hour. Cut the membrane according to the molecular weight of the target protein and internal reference protein, and place it in primary antibody diluted with 1×TBST. Shake overnight at 4° C.
The next day, transfer the band to 1×TBST for 3 washes, then add a specific dilution of the secondary antibody and shake it for 1.5 hours. Transfer the band again to 1×TBST for 3 washes, prepare ECL color solution, place the membrane in the imaging system, cover the surface with ECL color solution, and take photos of the membrane using the imaging system.
Using the SHST analysis system to analyze the results, measure the grayscale values of each band of the target protein and internal reference protein. Normalize the grayscale values of the target protein/corresponding lane GAPDH grayscale values, and perform quantitative analysis according to the protein amount=experimental group grayscale value/blank control group grayscale value.
The activity of the compound of the present invention in degrading DDR in tumor cell line MKN45 was measured. […]

Chain of DDR1 (Q08345 19-913): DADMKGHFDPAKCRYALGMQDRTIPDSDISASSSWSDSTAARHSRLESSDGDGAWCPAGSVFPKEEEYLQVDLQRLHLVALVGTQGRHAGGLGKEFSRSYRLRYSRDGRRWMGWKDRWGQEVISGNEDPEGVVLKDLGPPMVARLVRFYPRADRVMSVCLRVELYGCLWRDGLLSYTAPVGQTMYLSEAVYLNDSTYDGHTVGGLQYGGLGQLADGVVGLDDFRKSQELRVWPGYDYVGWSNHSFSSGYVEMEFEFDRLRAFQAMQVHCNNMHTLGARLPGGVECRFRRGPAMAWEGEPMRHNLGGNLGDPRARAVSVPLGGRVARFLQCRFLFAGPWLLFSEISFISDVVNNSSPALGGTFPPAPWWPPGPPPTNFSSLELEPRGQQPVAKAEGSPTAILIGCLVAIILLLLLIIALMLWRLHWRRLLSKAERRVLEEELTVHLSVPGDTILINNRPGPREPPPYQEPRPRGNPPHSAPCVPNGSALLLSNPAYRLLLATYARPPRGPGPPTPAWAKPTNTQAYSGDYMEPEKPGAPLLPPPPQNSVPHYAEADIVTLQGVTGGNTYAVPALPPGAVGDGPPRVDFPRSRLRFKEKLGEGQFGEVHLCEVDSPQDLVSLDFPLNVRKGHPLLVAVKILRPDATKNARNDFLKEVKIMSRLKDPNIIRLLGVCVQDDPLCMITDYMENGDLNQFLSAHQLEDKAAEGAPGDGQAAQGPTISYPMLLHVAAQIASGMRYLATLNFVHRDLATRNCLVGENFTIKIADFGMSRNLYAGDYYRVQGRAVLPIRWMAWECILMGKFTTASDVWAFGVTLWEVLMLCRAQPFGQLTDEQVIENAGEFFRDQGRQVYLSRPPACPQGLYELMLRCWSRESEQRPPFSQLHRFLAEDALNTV

| SMILES | pIC50 [1] | pIC50 [2] | Dmax [3] [%] |
| --- | --- | --- | --- |
| COc1cc2c(Oc3ccc(NC(=O)C4(C(=O)Nc5ccc(F)cc5)CC4)cc3)ccnc2cc1N1CCC(CN2CCN(CCNc3ccc4c(n3)C(=O)N(C3CCC(=O)NC3=O)C4)CC2)CC1 (stereo not drawn) [TPD12013] | 6.30 to 7.00 | 6.30 to 7.00 | > 85 |
| COc1cc2c(Oc3ccc(NC(=O)C4(C(=O)Nc5ccc(F)cc5)CC4)cc3)ccnc2c(F)c1N1CCC(CN2C3CC2CN(CCC(=O)Nc2cc4c(cn2)C(=O)N(C2CCC(=O)NC2=O)C4)C3)CC1 (stereo not drawn) [TPD12139] | ≥ 7.00 | ≥ 7.00 | 75 to 85 |
| O=C1CCC(N2Cc3cc(NC(=O)CCN4CC5CC(C4)N5CC4CCN(c5cc6nccc(Oc7ccc(NC(=O)C8(C(=O)Nc9ccc(F)cc9)CC8)cc7)c6cc5F)CC4)ccc3C2=O)C(=O)N1 (stereo not drawn) [TPD12215] | ≥ 7.00 | ≥ 7.00 | 75 to 85 |
| O=C1CCC(N2Cc3c(NC(=O)CCN4CC5CC(C4)N5CC4CCN(c5cc6nccc(Oc7ccc(NC(=O)C8(C(=O)Nc9ccc(F)cc9)CC8)cc7)c6cc5OC(F)(F)F)CC4)cccc3C2=O)C(=O)N1 (stereo not drawn) [TPD12149] | ≥ 7.00 | ≥ 7.00 | 75 to 85 |
| COc1cc2c(Oc3ccc(NC(=O)C4(C(=O)Nc5ccc(F)cc5)CC4)cc3)ccnc2cc1N1CCC(CN2CC3CC(C2)N3CCCNc2cc3c(cn2)C(=O)N(C2CCC(=O)NC2=O)C3)CC1 (stereo not drawn) [TPD12118] | ≥ 7.00 | ≥ 7.00 | 65 to 75 |
| COc1cc2c(Oc3ccc(NC(=O)C4(C(=O)Nc5ccc(F)cc5)CC4)cc3)ccnc2cc1NCC(=O)N1CCC(CN2CCN(c3ccc(N(C)C4CCC(=O)NC4=O)nc3F)CC2)CC1 (stereo not drawn) [TPD5773] | 6.00 to 6.30 | 6.30 to 7.00 | 65 to 75 |
| O=C1CCC(N2Cc3cc(NC(=O)CCN4CC5CC(C4)N5CC4CCN(c5cc6nccc(Oc7ccc(NC(=O)C8(C(=O)Nc9ccc(F)cc9)CC8)cc7)c6cc5OC(F)(F)F)CC4)ncc3C2=O)C(=O)N1 (stereo not drawn) [TPD12148] | ≥ 7.00 | ≥ 7.00 | 65 to 75 |
| Cc1ncsc1-c1ccc(CNC(=O)[C@@H]2C[C@@H](O)CN2C(=O)[C@@H](NC(=O)CCN2CCC(COc3cnc(-c4cccc(Cn5nc(-c6cccc(C#N)c6)ccc5=O)c4)nc3)CC2)C(C)(C)C)cc1 [TPD10001] | 6.00 to 6.30 | 6.30 to 7.00 | 65 to 75 |
| COc1cc2c(Oc3ccc(NC(=O)C4(C(=O)Nc5ccc(F)cc5)CC4)cc3)ccnc2cc1N1CCC(CN2C3CC2CN(CCC(=O)Nc2cc4c(cn2)C(=O)N(C2CCC(=O)NC2=O)C4)C3)CC1 (stereo not drawn) [TPD12112] | ≥ 7.00 | ≥ 7.00 | 65 to 75 |
| COc1cc2c(Oc3ccc(NC(=O)C4(C(=O)Nc5ccc(F)cc5)CC4)cc3)ccnc2cc1COCCN1CCC(OCCC(=O)N[C@H](C(=O)N2C[C@H](O)C[C@H]2C(=O)NCc2ccc(-c3scnc3C)cc2)C(C)(C)C)CC1 [TPD5305] | 6.30 to 7.00 | 6.30 to 7.00 | 65 to 75 |
| COc1cc2c(Oc3ccc(NC(=O)C4(C(=O)Nc5ccc(F)cc5)CC4)cc3)ccnc2cc1NCCC(=O)N[C@H](C(=O)N1C[C@H](O)C[C@H]1C(=O)NCc1ccc(-c2scnc2C)cc1)C(C)(C)C [TPD5415] | 6.30 to 7.00 | 6.30 to 7.00 | 65 to 75 |
| COc1cc2c(Oc3ccc(NC(=O)C4(C(=O)Nc5ccc(F)cc5)CC4)cc3)ccnc2cc1N1CCC(CN2C3CC2CN(CCC#Cc2ccc4c(c2)CN(C2CCC(=O)NC2=O)C4=O)C3)CC1 (stereo not drawn) [TPD12236] | ≥ 7.00 | ≥ 7.00 | 75 to 85 |
| O=C1CCC(N2Cc3cc(NC(=O)CN4C5CC4CN(CC4CCN(c6cc7nccc(Oc8ccc(NC(=O)C9(C(=O)Nc%10ccc(F)cc%10)CC9)cc8)c7cc6F)CC4)C5)ncc3C2=O)C(=O)N1 (stereo not drawn) [TPD12088] | 6.30 to 7.00 | ≥ 7.00 | 65 to 75 |
| COc1cc2c(Oc3ccc(NC(=O)C4(C(=O)Nc5ccc(F)cc5)CC4)cc3)ccnc2cc1COCCN1CCN(C(=O)CNc2cccc3c2C(=O)N(C2CCC(=O)NC2=O)C3=O)CC1 (stereo not drawn) [TPD5317] | 6.30 to 7.00 | 6.30 to 7.00 | 65 to 75 |
| CNC(=O)c1ccc(-c2cnc3ncc(Cc4ccc5ncc(C(=O)N6CCC(CN7CCN(CC(=O)N[C@H](C(=O)N8C[C@H](O)C[C@H]8C(=O)NCc8ccc(-c9scnc9C)cc8)C(C)(C)C)CC7)CC6)cc5c4)n3n2)cc1F [TPD9006] | ≥ 7.00 | 6.30 to 7.00 | 75 to 85 |
| O=C1CCC(N2Cc3cc(NC(=O)CN4C[C@@H]5C[C@H]4CN5CC4CCN(c5cc6nccc(Oc7ccc(NC(=O)C8(C(=O)Nc9ccc(F)cc9)CC8)cc7)c6cc5F)CC4)ccc3C2=O)C(=O)N1 (stereo partly drawn) [TPD12205] | ≥ 7.00 | ≥ 7.00 | 65 to 75 |
| Cc1nc(CCOC2CCN(CCC(=O)Nc3cccc4c3CN(C3CCC(=O)NC3=O)C4=O)CC2)cc(Nc2ncc(C(=O)Nc3c(C)cccc3Cl)s2)n1 (stereo not drawn) [TPD10050] | 6.00 to 6.30 | 6.30 to 7.00 | 75 to 85 |
| COc1cc2c(Oc3ccc(NC(=O)C4(C(=O)Nc5ccc(F)cc5)CC4)cc3)ccnc2cc1N1CCC(CN2C3CC2CN(CCC#Cc2cccc4c2CN(C2CCC(=O)NC2=O)C4=O)C3)CC1 (stereo not drawn) [TPD12234] | ≥ 7.00 | ≥ 7.00 | 75 to 85 |
| COc1cc2c(Oc3ccc(NC(=O)C4(C(=O)Nc5ccc(F)cc5)CC4)cc3)ccnc2cc1N1CCC(CN2CCC(N3CCN(c4cccc5c4CN(C4CCC(=O)NC4=O)C5=O)CC3)CC2)CC1 (stereo not drawn) [TPD5907] | ≥ 7.00 | ≥ 7.00 | > 85 |
| Cc1ncsc1-c1ccc(CNC(=O)[C@@H]2C[C@@H](O)CN2C(=O)[C@@H](NC(=O)CN2CCN(CC3CCN(C(=O)c4ccc(-c5cnc6ncc(Cc7ccc8ncccc8c7)n6n5)cc4F)CC3)CC2)C(C)(C)C)cc1 [TPD9004] | 6.30 to 7.00 | ≥ 7.00 | 75 to 85 |
